Assay results taken from PubChem BioAssay (NCI).
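These data come from cells grown in 96-well plates and exposed to compound for 48 hours at five concentrations. At the GI50, growth is halved. TGI: total growth inhibition.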

Key:
Test in all cases: NCI tumour cell line growth inhibition, 48 h
[1] = test system: 786-0 renal
[2] = test system: A498 renal
[3] = test system: A549 NSCLC
[4] = test system: ACHN renal
[5] = test system: BT-549 breast
[6] = test system: CAKI-1 renal
[7] = test system: CCRF-CEM leukemia
[8] = test system: COLO 205 colon
[9] = test system: DU-145 prostate
[10] = test system: EKVX NSCLC
[11] = test system: HCC-2998 colon
[12] = test system: HCT-116 colon
[13] = test system: HCT-15 colon
[14] = test system: HL-60(TB) leukemia
[15] = test system: HOP-62 NSCLC
[16] = test system: HOP-92 NSCLC
[17] = test system: HS 578T breast
[18] = test system: HT29 colon
[19] = test system: IGROV1 ovarian
[20] = test system: K-562 leukemia
[21] = test system: KM12 colon
[22] = test system: LOX IMVI melanoma
[23] = test system: M14 melanoma
[24] = test system: MALME-3M melanoma
[25] = test system: MCF7 breast
[26] = test system: MDA-MB-231 breast
[27] = test system: MDA-MB-435
[28] = test system: MOLT-4 leukemia
[29] = test system: NCI-H226 lung

**Q.** With `Cc1cccc(Cl)c1NC(=O)c1cnc(Nc2cc(N3CCOCC3)cc(S(C)(=O)=O)c2)s1` as the compound, how does the GI50 [1] read?
**A.** Its GI50 is 171 nM.

**Q.** What about the TGI [1] of the same compound?
**A.** The TGI was > 5.31 µM.

**Q.** And the GI50 [2]?
**A.** Its GI50 is 254 nM.

**Q.** What about the TGI [2] of the same compound?
**A.** The TGI was 2390 nM.

**Q.** And the GI50 [3]?
**A.** The GI50 was 2160 nM.

**Q.** And the TGI [3]?
**A.** Its TGI is > 10 µM.

**Q.** And the GI50 [4]?
**A.** The GI50 was 364 nM.

**Q.** What about the TGI [4] of the same compound?
**A.** The TGI was > 7.11 µM.

**Q.** And the GI50 [5]?
**A.** The GI50 was 9.75 µM.

**Q.** And the TGI [5]?
**A.** Its TGI is > 10 µM.

**Q.** And the GI50 [6]?
**A.** Its GI50 is 97.5 nM.

**Q.** And the TGI [6]?
**A.** Its TGI is 742 nM.

**Q.** And the GI50 [7]?
**A.** The GI50 was > 10 µM.

**Q.** What about the TGI [7] of the same compound?
**A.** The TGI was > 10 µM.

**Q.** What about the GI50 [8] of the same compound?
**A.** The GI50 was 572 nM.

**Q.** What about the TGI [8] of the same compound?
**A.** Its TGI is > 10 µM.

**Q.** What about the GI50 [9] of the same compound?
**A.** The GI50 was 1200 nM.

**Q.** What about the TGI [9] of the same compound?
**A.** The TGI was 5.14 µM.

**Q.** And the GI50 [10]?
**A.** Its GI50 is 1240 nM.

**Q.** What about the TGI [10] of the same compound?
**A.** The TGI was > 10 µM.

**Q.** And the GI50 [11]?
**A.** Its GI50 is > 2530 nM.

**Q.** And the TGI [11]?
**A.** Its TGI is > 10 µM.

**Q.** And the GI50 [12]?
**A.** Its GI50 is 313 nM.

**Q.** What about the TGI [12] of the same compound?
**A.** The TGI was > 10 µM.

**Q.** What about the GI50 [13] of the same compound?
**A.** The GI50 was 3000 nM.

**Q.** What about the TGI [13] of the same compound?
**A.** Its TGI is > 10 µM.

**Q.** And the GI50 [14]?
**A.** Its GI50 is 9.76 µM.

**Q.** And the TGI [14]?
**A.** The TGI was > 10 µM.

**Q.** And the GI50 [15]?
**A.** The GI50 was 198 nM.

**Q.** And the TGI [15]?
**A.** The TGI was > 10 µM.

**Q.** What about the GI50 [16] of the same compound?
**A.** The GI50 was 29.4 nM.

**Q.** What about the TGI [16] of the same compound?
**A.** Its TGI is 303 nM.

**Q.** What about the GI50 [17] of the same compound?
**A.** Its GI50 is 138 nM.

**Q.** What about the TGI [17] of the same compound?
**A.** The TGI was 826 nM.

**Q.** What about the GI50 [18] of the same compound?
**A.** Its GI50 is 203 nM.

**Q.** What about the TGI [18] of the same compound?
**A.** Its TGI is 663 nM.

**Q.** And the GI50 [19]?
**A.** Its GI50 is 54.1 nM.

**Q.** And the TGI [19]?
**A.** The TGI was 521 nM.

**Q.** What about the GI50 [20] of the same compound?
**A.** Its GI50 is 5.69 nM.

**Q.** And the TGI [20]?
**A.** Its TGI is > 10 µM.

**Q.** What about the GI50 [21] of the same compound?
**A.** Its GI50 is > 10 µM.

**Q.** What about the TGI [21] of the same compound?
**A.** The TGI was > 10 µM.

**Q.** What about the GI50 [22] of the same compound?
**A.** Its GI50 is 97.7 nM.

**Q.** And the TGI [22]?
**A.** Its TGI is 938 nM.

**Q.** And the GI50 [23]?
**A.** The GI50 was 4.01 µM.

**Q.** And the TGI [23]?
**A.** Its TGI is > 10 µM.

**Q.** And the GI50 [24]?
**A.** Its GI50 is > 4.16 µM.

**Q.** And the TGI [24]?
**A.** The TGI was > 10 µM.

**Q.** What about the GI50 [25] of the same compound?
**A.** The GI50 was > 8.99 µM.

**Q.** What about the TGI [25] of the same compound?
**A.** Its TGI is > 10 µM.

**Q.** And the GI50 [26]?
**A.** Its GI50 is 141 nM.

**Q.** What about the TGI [26] of the same compound?
**A.** Its TGI is > 3.4 µM.

**Q.** What about the GI50 [27] of the same compound?
**A.** Its GI50 is > 9.63 µM.

**Q.** And the TGI [27]?
**A.** Its TGI is > 10 µM.

**Q.** What about the GI50 [28] of the same compound?
**A.** The GI50 was 5.71 µM.

**Q.** And the TGI [28]?
**A.** Its TGI is > 10 µM.

**Q.** And the TGI [29]?
**A.** The TGI was > 10 µM.
